{"source": "patent US11154551B2", "about": "“HDAC1,2 inhibitors and methods of using the same” (UNIVERSITY OF UTAH RESEARCH FOUNDATION, priority 2014, dated 2021)", "key": {"HDAC1": {"molecular_target": "T1, HDAC1 (Homo sapiens, UniProt Q13547)", "T1 construct": "purchased BPS Biosciences", "T1 sequence (Q13547 whole entry)": "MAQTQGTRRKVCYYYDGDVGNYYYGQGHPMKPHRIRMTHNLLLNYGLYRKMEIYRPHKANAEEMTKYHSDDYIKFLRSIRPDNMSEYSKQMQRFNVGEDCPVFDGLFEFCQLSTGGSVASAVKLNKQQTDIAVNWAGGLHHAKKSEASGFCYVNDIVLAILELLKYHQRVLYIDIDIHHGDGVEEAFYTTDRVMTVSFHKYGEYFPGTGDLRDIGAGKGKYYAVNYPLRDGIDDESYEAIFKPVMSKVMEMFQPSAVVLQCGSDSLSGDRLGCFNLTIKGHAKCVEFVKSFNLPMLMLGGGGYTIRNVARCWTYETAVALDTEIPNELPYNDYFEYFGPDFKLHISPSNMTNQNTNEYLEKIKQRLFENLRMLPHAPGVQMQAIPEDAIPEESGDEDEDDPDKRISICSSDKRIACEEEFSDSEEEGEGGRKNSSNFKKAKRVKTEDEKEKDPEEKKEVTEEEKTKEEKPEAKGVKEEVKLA", "assay": "in vitro HDAC enzyme assay with recombinant enzyme", "settings": "from biochemical IC50 values, recombinant enzymes", "text": "Among class I HDACs, Hdac1,2 share a 50% sequence homology with Hdac3. Therefore, we first determined the selectivity of ACY-957 towards HDAC1 and HDAC2 in in vitro enzyme assays using recombinant enzymes."}, "Karpas-422 cells": {"test_system": "Karpas-422 cells", "assay": "propidium-iodide / BrdU-PI cell cycle analysis", "type": "cell-based, human", "experimental": "(§1) (B): Quantitation of the cell cycle data in (A), compiled from three independent analyses. The graphs plotted the average percentage of cells in each phase of the cell cycle. […] (C): FACS analysis following BrdU-PI staining of Karpas-422 and SUDHL4 cells was performed following a 48 h or 72 h treatment with ACY-957.\nCell cycle analysis of propidium-iodide stained cells was performed with fixed cells. […] (C): FACS analysis following BrdU-PI staining of Karpas-422 and SUDHL4 cells was performed following a treatment with 2 μM ACY-957, 50 nM doxorubicin or both for 48 h.\n(§2) (B): Quantitation of the cell cycle analysis performed in (A). Data from three independent cell cycle analyses were compiled and average percentage cells with standard errors were shown in this panel.\n(§3) Propidium-iodide Cell Cycle Analysis.\n(§4) Since these DLBCL cells expressed a hyperactive form of EZH2, pharmacological inhibition of EZH2 activity was considered a therapeutic strategy. […] GSK126 was a S-adenosyl-methionine-competitive inhibitor of EZH2 methyltransferase activity, and DZNep was a S-adenosylhomocysteine hydrolase inhibitor that disrupted the components of the PRC2 complex, thereby causing reduced chromatin-associated EZH2 levels.\nTo test this possibility, cell cycle analysis following treatment of Karpas-422 with ACY-957, doxorubicin, or ACY-957 in combination with doxorubicin was performed."}, "[1]": {"test_system": "Hdac1,2 or Hdac3 knockout cell lines", "assay": "Western blot of H4K5ac in conditional Hdac1,2 or Hdac3 knockout cells", "type": "cell-based, mouse", "experimental": "For IC50 determination, recombinant HDAC enzymes were treated with HDAC1,2 or HDAC3 inhibitors in in vitro HDAC assays. (B). Western blots for H3K23ac using extracts from Pre-B-ALL SupB15 cells treated with increasing dose of HDAC1,2 inhibitor (ACY1035). (C). Hdac1^FI/FI, 2^FI/FI cells were infected with Ad-Cre virus to delete HDAC1 and HDAC2 (HDAC1,2 null) or uninfected (WT). (D). Hdac3^FI/FI cells were either uninfected (WT) or infected with Ad-Cre virus to delete Hdac3."}, "[2]": {"test_system": "SupB15 (Ph+PreB-ALL) cells", "assay": "γH2AX immunofluorescence", "type": "cell-based, human", "settings": "2 μM, 48 hours", "experimental": "SupB15 cells were treated with 2 μM ACY1035, ACY1071, ACY957, or solvent (DMSO) for 48 hours. (A) Immunofluorescence with γH2AX was performed on treated SupB15 cells. The number of γH2AX foci was counted in around 100 cells for each treatment and classified into cells with no foci, 1-5, 6-10, and greater than 10 foci. (B) SupB15 cells treated with DMSO or ACY1035 for 48 hours were tested via neutral comet assay to measure the amount of double-strand breaks (DSBs), indicated by the tail.\nBCR-ABL promotes DNA repair to prevent DNA damage accumulation in Philadelphia chromosome-positive (Ph+) leukemia cells. To examine the effect of various HDAC1,2-selective inhibitors on DNA repair and DNA damage response in Pre-B-ALL cells that express BCR-ABL, SupB15 (Ph+PreB-ALL) cells were treated with 2 μM ACY1035 or 2 μM ACY1071 or 2 μM ACY957 for 48 hours."}, "[3]": {"test_system": "non-transformed, mouse bone marrow Pro-B derived Baf3 cells or cord blood stem cells", "assay": "cell death in non-transformed cells", "type": "cell-based", "settings": "2 μM, within 72 hr", "text": "Therefore, transformed lymphoma cells are more sensitive to HDAC1,2 inhibition when compared to the untransformed normal B-cells. HDAC1,2 inhibitor causes replication fork collapse in S-phase to trigger DNA damage response, and transformed cancer cells have increased DNA replication when compared to normal B cells. […] In addition to this property, EZH2^GOF DLBCL cells also have increased DNA repair compared to EZH2^WT DLBCL cells (FIG. 34A), which can also be targeted by HDAC1,2 inhibitor as it impairs the HDAC1,2 regulated DNA repair processes used by EZH2^GOF DLBCL cells for their survival."}, "[4]": {"test_system": "SUDHL4 and Karpas-422 cells", "assay": "Western blot of γH2AX on chromatin, with or without ionizing radiation", "type": "cell-based, human", "experimental": "(§5) The percentage of cells with 6 or greater γH2AX foci were counted in three independent experiments and at least 100 cells were counted in each experiment. […] Histones were purified using trichloroacetic acid extraction protocol (see Example 1). Western blot analysis was done with anti-γH2AX and histone H2AX served as the loading control. […] Following DMSO or ACY957 treatment, cells were exposed to a 5Gy dose of ionizing radiation and allowed to recover for 30 minutes prior to chromatin extraction. Western blot analysis was done with anti-γH2AX where total histone H2AX served as a loading control. (D): Karpas-422 cells were micro-irradiated with laser and allowed to recover for 15 minutes before fixation and immunofluorescence staining with anti-γH2AX, anti-HDAC1 and anti-HDAC2 antibodies was done."}, "SUDHL4 cells": {"test_system": "SUDHL4 cells", "assay": "propidium-iodide / BrdU-PI cell cycle analysis", "type": "cell-based, human", "experimental": "as §1, §2, §3, §4"}, "[5]": {"test_system": "SUDHL4 and Karpas-422 cells", "assay": "γH2AX foci formation by immunofluorescence", "type": "cell-based, human", "experimental": "as §5\nImmunofluorescence. Cells were fixed in either 10% formalin or methanol-acetone (1:1) for 10 min at −20*C. The cells were then permeabilized with 0.5% Triton-X-100 in PBS for 5 min at room temperature (RT), blocked in 10% normal goat serum (Sigma) for 30 min and stained with primary antibody for 1 h at RT. Cells were incubated with secondary antibody (anti-mouse or anti-rabbit IgG, Alexa Fluor 488/546) at a 1:600 dilution for 45 min at RT, and counterstained with Hoechst 33342 (Sigma) at 1:1000 dilution to visualize the nuclei. Images were captured using Zeiss Axioskop mot plus microscope with a 40× lens and analyzed using the AxioVision software."}, "[6]": {"settings": "24 h, 2 μM ACY-957, 0.5 μM DZNEP, 0.5 μM GSK126"}, "[7]": {"settings": "48 h, 2 μM ACY-957, 0.5 μM DZNEP, 0.5 μM GSK126"}, "[8]": {"settings": "72 h, 2 μM ACY-957, 0.5 μM DZNEP, 0.5 μM GSK126"}}, "note": "Entries after “also recorded” stand apart in the source; their conditions may differ."}
{"smiles": "Nc1ccc(-c2cccs2)cc1NC(=O)c1ccc2nc(N3CCNCC3)ccc2c1", "note": "[ACY-957, N-(2-amino-5-(thiophen-2-yl)phenyl)-2-(piperazin-1-yl)quinoline-6-carboxamide]", "values": [{"measurement": "selectivity for HDAC1 when compared to HDAC3", "setting": "HDAC1", "result": 185, "unit": "fold"}, {"measurement": "cell death / sub-G1 population", "setting": "Karpas-422 cells; 2 μM ACY-957, 50 nM doxorubicin or both, 48 h", "result": "sub-G1 population (i.e., dead cells) was observed"}, {"measurement": "progression through the cell cycle", "setting": "Karpas-422 cells; [6]", "result": "did not affect their progression through the cell cycle"}, {"measurement": "cell cycle / sub-G1 (dead cells)", "setting": "Karpas-422 cells; [7]", "result": "modest accumulation of sub-G1 population"}, {"measurement": "S-phase population, BrdU-PI FACS", "setting": "Karpas-422 cells; 48 h and 72 h, accompanied by increased cell death", "result": "decrease in S-phase population"}, {"measurement": "cell cycle / sub-G1 (dead cells)", "setting": "Karpas-422 cells; [8]", "result": "larger increase in the number of sub-G1/dead cells; also recorded: large increase in the number of sub-G1 or dead Karpas-422 cells"}, {"measurement": "H4K5ac in Hdac3-null cells", "setting": "[1]", "result": "additive increase in H4K5ac"}, {"measurement": "DNA damage, quantitation of γH2AX foci", "setting": "[2]", "result": "statistically significant increase in DNA damage"}, {"measurement": "cell death", "setting": "[3]", "result": "did not cause any cell death"}, {"measurement": "chromatin associated γH2AX", "setting": "[4]; 48 hr, Western", "result": "increase in chromatin associated γH2AX"}, {"measurement": "γH2AX levels on chromatin after ionizing radiation", "setting": "[4]; 48 h treatment, 5Gy, 30 min recovery", "result": "Increased γH2AX levels on chromatin"}, {"measurement": "progression through the cell cycle", "setting": "SUDHL4 cells; [6]", "result": "did not affect their progression through the cell cycle"}, {"measurement": "cell cycle / G1 arrest", "setting": "SUDHL4 cells; 48 h, 2 μM ACY-957, 0.5 μM GSK126", "result": "accumulation of SUDHL4 cells in G1 phase (G1 arrest)"}, {"measurement": "S-phase population, BrdU-PI FACS", "setting": "SUDHL4 cells; 48 h and 72 h, accompanied by G1 arrest", "result": "decrease in S-phase population"}, {"measurement": "cell cycle / G1 arrest and sub-G1", "setting": "SUDHL4 cells; [8]", "result": "greater number of cells arrested in G1 phase; also recorded: cell cycle arrest at G1 phase in SUDHL4 cells"}, {"measurement": "cells with γH2AX foci", "setting": "[5]; [7]", "result": "significant increase in the number of cells with greater than six γH2AX foci"}, {"measurement": "γH2AX foci by immunofluorescence", "setting": "[5]; EZH2GOF DLBCL cells", "result": "increase in γH2AX"}]}
